# Measured values reported in patent US20210363545A1, “GENETIC SELECTION MARKERS BASED ON ENZYMATIC ACTIVITIES OF THE PYRIMIDINE SALVAGE PATHWAY” (priority 2018, published 2021).
# Where two headings read alike, the source gives them in different places.
# How the values were obtained:
# [1] = tested on: A. oryzae; assay: broth microdilution susceptibility testing according to EUCAST; assay type: cell-based, Aspergillus oryzae
# Description: (§1) To identify encoded A. fumigatus FcyB, FcyA, Uprt, Uk and CntA activities in further fungal species, it was searched for A. fumigatus orthologs in biotechnology-relevant species (Aspergillus niger, Aspergillus oryzae, P. chrysogenum, Komagataella phaffii alias Pichia pastoris, S. cerevisiae, Trichoderma reesei) and in virulence-relevant species (Candida albicans, Cryptococcus neoformans, F. oxysporum). Orthologs to A. fumigatus proteins with an overall identity 40% were considered as putative orthologs if activities could be confirmed by susceptibility testing following a broth microdilution based method according to EUCAST (see Table 10).
# [2] = tested on: C. neoformans; assay: as above; assay type: cell-based, Cryptococcus neoformans
# Description: as §1
# [3] = tested on: T. reesei; assay: as above; assay type: cell-based, Trichoderma reesei
# Description: as §1
# [4] = tested on: P. pastoris; assay: as above; assay type: cell-based, Komagataella phaffii alias Pichia pastoris
# Description: as §1
# [5] = tested on: A. fumigatus ΔfcyA; assay: plate growth assay based susceptibility testing on solid AMM; assay type: cell-based, Aspergillus fumigatus
# Method: (§2) Plate growth assay based susceptibility testing of A. fumigatus and P. chrysogenum was carried out using solid AMM, for F. oxysporum solid PDA was employed. Low pH medium contained 100 mM citrate buffer (pH5), neutral pH medium 100 mM MOPS buffer (pH7). For strains carrying PxylP tunable reporter genes (sGFP, mKate2PER, sGFPMIT, lacZ), 0.5% xylose was supplemented to the medium to induce gene expression.
# (§3) Coding sequences of fcyA and uprt were disrupted in wt (A1160P+) using hygromycin B and zeocin resistance cassettes, respectively. Therefore, deletion constructs comprising approximately 1 kb of 5′ and 3′ NTR linked to the central antibiotic resistance cassette were generated using fusion PCR as previously described (Fraczek, et al., The Journal of antimicrobial chemotherapy 68, 1486-1496 (2013)). Correct integration of constructs was confirmed by Southern analysis (see FIG. 14).
# Among other fungal species, A. fumigatus is susceptible to 5FC (Te Dorsthorst et al., Antimicrob Agents Chemother 48, 3147-3150 (2004); Te Dorsthorst et al., Antimicrobial agents and chemotherapy 49, 3341-3346 (2005)) and is therefore anticipated to harbor genes encoding CD and UPRT in addition to 5FC uptake. […]
# [6] = tested on: A. niger; assay: broth microdilution susceptibility testing according to EUCAST; assay type: cell-based, Aspergillus niger
# Description: as §1
# [7] = tested on: P. chrysogenum; assay: as above; assay type: cell-based, Penicillium chrysogenum
# Description: as §1
# [8] = tested on: C. albicans; assay: as above; assay type: cell-based, Candida albicans
# Description: as §1
# [9] = tested on: F. oxysporum; assay: as above; assay type: cell-based, Fusarium oxysporum
# Description: as §1
# [10] = tested on: A. fumigatus; assay: as above; assay type: cell-based, Aspergillus fumigatus
# Description: as §1
# [11] = tested on: A. fumigatus wt (A1160P+); assay: plate growth assay based susceptibility testing on solid AMM; assay type: cell-based, Aspergillus fumigatus; settings: for pH dependence of activity: A. fumigatus
# Method: (§4) pH 5 transcriptionally activates fcyB mediated uptake of 5FC. […] Inactivation of fcyB leads to resistance at 10 μg/ml 5FC at pH 5. Inactivation of fcyB leads to resistance on AMM (AMM Composition: 55.5 mM D-glucose, 20.0 mM ammonium tartrate, 7 mM KCl, 2.1 mM MgSO4 x 7H2O, 11.2 mM KH2PO4, 0.09 μM Na2B4O7 x 10H2O, 1 μM CuSO4 x 5H2O, 10 μM FeSO4 x 7H2O, 4.5 μM MnSO4 x 4H2O, 3.1 μM Na2MoO4 x 10H2O, […] ZnSO4 x 7H2O, 0.7% Agar; finally adjusted to pH 6.5 using NaOH before autoclaving) supplemented with 10 μg/ml 5FC and 100 mM citrate buffer pH 5.
# as §2
# (§5) Among other fungal species, A. fumigatus is susceptible to 5FC (Te Dorsthorst et al., Antimicrob Agents Chemother 48, 3147-3150 (2004); Te Dorsthorst et al., Antimicrobial agents and chemotherapy 49, 3341-3346 (2005)) and is therefore anticipated to harbor genes encoding CD and UPRT in addition to 5FC uptake. […] To analyze their role in 5FC as well as 5FU activity, fcyA and uprt was inactivated in the A. fumigatus strain A1160P+ (Fraczek, et al., The Journal of antimicrobial chemotherapy 68, 1486-1496 (2013)), termed wt here, using hygromycin and phleomycine resistance based deletion cassettes. Due to the interdependency of 5FC activity and environmental pH (Gsaller et al., Antimicrob Agents Chemother 62 (2018); Te Dorsthorst et al., Antimicrob Agents Chemother 48, 3147-3150 (2004)) the contribution of both enzymes as well as FcyB to 5FC and 5FU activity at both pH5 and pH7 was investigated.
# [12] = tested on: A. fumigatus ΔfcyB; assay: as above; assay type: cell-based, Aspergillus fumigatus; settings: for growth of ΔfcyB: 100 μg/ml
# Method: as §4, §2, §5
# [13] = tested on: S. cersvisiae; assay: broth microdilution susceptibility testing according to EUCAST; assay type: cell-based, S. cerevisiae
# Description: as §1
# [14] = tested on: A. fumigatus Δuprt; assay: plate growth assay based susceptibility testing on solid AMM; assay type: cell-based, Aspergillus fumigatus; settings: for growth of Δuprt strains: 200 μg/ml; for growth after inactivation of uprt: AMM supplemented with 100 μg/ml, pH7
# Method: Furthermore, 5-FU supplementation inhibits ΔfcyB (see FIG. 4). Inactivation of uprt allows growth of A. fumigatus on AMM supplemented with 100 μg/ml 5FC or 5FU at pH7 (see FIG. 4). At concentrations 10-500 μg/ml 5FC or 5FU, independent of the pH (200 μg/ml 5FC as well as 5FU were also tested and the Δuprt strains grow).
# as §2, §3, §5
# [15] = tested on: A. fumigatus with inactivated cntA; assay: growth on AMM supplemented with 5-FUR; assay type: cell-based, Aspergillus fumigatus; settings: AMM supplemented with 100 μg/ml
# [16] = tested on: A. fumigatus with inactivated uk; assay: growth on AMM supplemented with 5-FUR; assay type: cell-based, Aspergillus fumigatus; settings: AMM supplemented with 100 μg/ml
# [17] = up to 100 μg/ml, regardless of the pH
# [18] = Aspergillus oryzae, pH 5, read-out: MIC
# [19] = Aspergillus oryzae, pH 7, read-out: MIC
# [20] = Cryptococcus neoformans, pH 5, read-out: MIC
# [21] = Cryptococcus neoformans, pH 7, read-out: MIC
# [22] = Trichoderma reesei, pH 5, read-out: MIC
# [23] = Trichoderma reesei, pH 7, read-out: MIC
# [24] = Komagataella pastoris, pH 5, read-out: MIC
# [25] = Komagataella pastoris, pH 7, read-out: MIC
# [26] = Aspergillus niger, pH 5, read-out: MIC
# [27] = Aspergillus niger, pH 7, read-out: MIC
# [28] = Penicillium chrysogenum, pH 5, read-out: MIC
# [29] = Penicillium chrysogenum, pH 7, read-out: MIC
# [30] = Candida albicans, pH 5, read-out: MIC
# [31] = Candida albicans, pH 7, read-out: MIC
# [32] = Fusarium oxysporum, pH 5, read-out: MIC
# [33] = Fusarium oxysporum, pH 7, read-out: MIC
# [34] = Aspergillus fumigatus, pH 5, read-out: MIC
# [35] = Aspergillus fumigatus, pH 7, read-out: MIC
# [36] = Saccharomyces cerevisiae, pH 5, read-out: MIC
# [37] = Saccharomyces cerevisiae, pH 7, read-out: MIC
compound,measurement,setting,value
"Nc1nc(=O)[nH]cc1F [5FC, 5-flucytosine]",MIC,[1]; pH 5,0.39 µg/mL
same,MIC,[1]; pH 7,400 µg/mL
same,MIC,[2]; pH 5,0.39 µg/mL
same,MIC,[2]; pH 7,25 µg/mL
same,MIC,[3]; pH 5,>400 µg/mL
same,MIC,[3]; pH 7,>400 µg/mL
same,MIC,[4]; pH 5,0.39 µg/mL
same,MIC,[4]; pH 7,0.39 µg/mL
same,resistance of ΔfcyA,[5]; [17],full resistance
same,MIC,[6]; pH 5,0.39 µg/mL
same,MIC,[6]; pH 7,6.25 µg/mL
same,MIC,[7]; pH 5,0.39 µg/mL
same,MIC,[7]; pH 7,3.12 µg/mL
same,MIC,[8]; pH 5,0.39 µg/mL
same,MIC,[8]; pH 7,0.39 µg/mL
same,MIC,[9]; pH 5,>400 µg/mL
same,MIC,[9]; pH 7,>400 µg/mL
same,MIC,[10]; pH 5,0.39 µg/mL
same,MIC,[10]; pH 7,400 µg/mL
same,susceptibility of WT isolate,"[11]; 10 μg/ml, AMM with 100 mM citrate buffer pH 5",highly susceptible
same,pH dependence of activity,[11],much more active at pH5
same,level that blocked wt growth,"[11]; wt, pH5, plate growth",≥ 1 µg/mL
same,level required to block wt growth,"[11]; wt, pH7, plate growth",100 µg/mL
same,resistance after inactivation of fcyB,"[12]; 10 μg/ml, pH 5, AMM",resistance
same,growth of ΔfcyB,[12]; pH5,not able to grow
same,growth of ΔfcyB,[12]; pH7,severe growth inhibition
same,MIC,[13]; pH 5,0.39 µg/mL
same,MIC,[13]; pH 7,0.39 µg/mL
same,growth of Δuprt strains,[14],grow
same,growth after inactivation of uprt,[14],allows growth
same,resistance of Δuprt,[14]; [17],full resistance
"O=c1[nH]cc(F)c(=O)[nH]1 [5FU, 5-fluorouracil]",MIC,[1]; [18],200 µg/mL
same,MIC,[1]; [19],12.5 µg/mL
same,MIC,[2]; [20],6.25 µg/mL
same,MIC,[2]; [21],12.5 µg/mL
same,MIC,[3]; [22],100 µg/mL
same,MIC,[3]; [23],0.39 µg/mL
same,MIC,[4]; [24],0.39 µg/mL
same,MIC,[4]; [25],> 400 µg/mL
same,growth of ΔfcyA,"[5]; 100 μg/ml, pH5 as well as pH7",blocked growth
same,MIC,[6]; [26],50 µg/mL
same,MIC,[6]; [27],0.39 µg/mL
same,MIC,[7]; [28],3.12 µg/mL
same,MIC,[7]; [29],3.12 µg/mL
same,MIC,[8]; [30],50 µg/mL
same,MIC,[8]; [31],0.39 µg/mL
same,MIC,[9]; [32],400 µg/mL
same,MIC,[9]; [33],> 400 µg/mL
same,MIC,[10]; [34],50 µg/mL
same,MIC,[10]; [35],> 400 µg/mL
same,growth of wt,"[11]; 100 μg/ml, pH5 as well as pH7",blocked growth
same,pH dependence of activity,[11],pH independent
same,concentrations that fully inhibit A. fumigatus growth,"[11]; typically, AMM",> 100 µg/mL
same,growth of ΔfcyB,[12]; pH5 as well as pH7,blocked growth
same,effect of supplementation on ΔfcyB,"[12]; solid Aspergillus minimal medium, FIG. 4",inhibits
same,MIC,[13]; [36],0.8 µg/mL
same,MIC,[13]; [37],100 µg/mL
same,resistance of Δuprt,"[14]; 100 μg/ml, pH5 as well as pH7",high resistance
same,growth of Δuprt strains,[14],grow
same,growth after inactivation of uprt,[14],allows growth
"O=c1[nH]c(=O)n([C@@H]2O[C@H](CO)[C@@H](O)[C@H]2O)cc1F [5FUR, 5-fluorouridine]",MIC,[1]; [18],6.25 µg/mL
same,MIC,[1]; [19],12.5 µg/mL
same,MIC,[2]; [20],3.12 µg/mL
same,MIC,[2]; [21],12.5 µg/mL
same,MIC,[3]; [22],0.39 µg/mL
same,MIC,[3]; [23],0.39 µg/mL
same,MIC,[4]; [24],0.39 µg/mL
same,MIC,[4]; [25],> 400 µg/mL
same,MIC,[6]; [26],0.8 µg/mL
same,MIC,[6]; [27],0.39 µg/mL
same,resistance after inactivation of cntA,[15],significantly increases resistance
same,MIC,[7]; [28],3.12 µg/mL
same,MIC,[7]; [29],3.12 µg/mL
same,MIC,[8]; [30],0.39 µg/mL
same,MIC,[8]; [31],0.39 µg/mL
same,MIC,[9]; [32],> 400 µg/mL
same,MIC,[9]; [33],> 400 µg/mL
same,MIC,[10]; [34],6.25 µg/mL
same,MIC,[10]; [35],> 400 µg/mL
same,pH dependence of activity,[11],pH independent
same,concentrations that significantly inhibit A. fumigatus growth,[11]; AMM,> 100 µg/mL
same,MIC,[13]; [36],6.25 µg/mL
same,MIC,[13]; [37],25 µg/mL
same,resistance after inactivation of uk,[16],increases resistance
